Consider 1 compound from patent US11085033B2, “Glycosylated oxalate decarboxylase and preparation and application thereof” (WUHAN KANGFUDE BIOTECHNOLOGY CO., LTD., priority 2016, dated 2021).

The target in assay [1] is Agrocybe aegerita glycosylated oxalate decarboxylase (OxDc), naturally expressed by acid induction. The assay can be described thus: Determination of Km of Agrocybe aegerita oxalate decarboxylase by double reciprocal method; oxalate degradation by HPLC, 37° C. Type of assay: biochemical. On the procedure: In this invention, high performance liquid chromatography (HPLC) is used to determine the activity of oxalate decarboxylase. The operation process is as follows: preheating 1.0 mL 5 mM (mmol/L) oxalate solution (25 mM citrate buffer solution contained, pH 3.0) at 37° C. for 10 min and adding 0.01-0.1 ml (added volume is adjusted according to enzyme concentration) solution containing oxalate decarboxylase or fungus powder suspension into the oxalate solution for reaction; adding 50 μL 2.5M (molar concentration) H2SO4 to inactivate the enzyme after reacting for 30 minutes; quickly centrifuging the reaction solution and collecting supernatant to determine the concentration of residual oxalate by using HPLC. One enzyme activity unit (U) is defined as the required enzyme amount to degrade 1 micromole oxalate per minute on this condition.
The enzyme activity of the purified glycosylated oxalate decarboxylase obtained in Embodiment 2 was determined at pH 3.0, and the result is shown in Table 1. […] Different enzyme batches show the Kin value between 0.03 and 1.0 mM at different pH (pH 2.5-6.0), and the average Kin value at optimal pH range of pH 2.5-3.0 is 0.06 mM, as is shown in Table 2.

Assay [2] deals with Bacillus subtilis oxalate decarboxylase (OxDc). The conditions noted are these: even under a condition of an ideal pH value; read-out: Kin value; cited from earlier work.

On to `O=C(O)C(=O)O` [oxalate], for which, in assay [1] (optimal pH range pH 2.5-3.0), the “Kin value (average at optimal pH)” value is 0.06 mM. Moreover, the Km is 120 ± 40 µM in assay [1] (pH 3.0-3.5); 200 ± 30 µM in assay [1] (pH 3.5-4.0); 250 ± 80 µM in assay [1] (pH 4.0-4.5); 360 ± 130 µM in assay [1] (pH 4.5-5.0); 700 ± 300 µM in assay [1] (pH 5.0-6.0); 4000 µM in assay [2].
